Test results reported in ChEMBL document CHEMBL1201862, “PubChem BioAssay data set” (2004).
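Assay format: 96-well plates, 48-hour exposure. Abbreviation: GI50, concentration required for 50% inhibition of growth.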 Calls of active or inactive are those of the source. Cut-off read from the data, not from the text of the source: active = GI50 up to about 1.1 µM and inactive = higher.

Legend:
Assay in all cases: NCI-60 cell line screen, 48 h
786-0 = tested on: 786-0
COLO 205 = tested on: COLO 205
HCC 2998 = tested on: HCC 2998
HCT-15 = tested on: HCT-15
HL-60 = tested on: HL-60
LOX IMVI = tested on: LOX IMVI
MDA-MB-435 = tested on: MDA-MB-435
Malme-3M = tested on: Malme-3M
NCI/ADR-RES = tested on: NCI/ADR-RES
OVCAR-4 = tested on: OVCAR-4
PC-3 = tested on: PC-3
SK-OV-3 = tested on: SK-OV-3
SNB-75 = tested on: SNB-75
SR = tested on: SR
TK-10 = tested on: TK-10
U-251 = tested on: U-251
UACC-257 = tested on: UACC-257
SF-539 = tested on: SF-539
SN12C = tested on: SN12C

SMILES	GI50 (786-0)	GI50 (COLO 205)	GI50 (HCC 2998)	GI50 (HCT-15)	GI50 (HL-60)	GI50 (LOX IMVI)	GI50 (MDA-MB-435)	GI50 (Malme-3M)	GI50 (NCI/ADR-RES)	GI50 (OVCAR-4)	GI50 (PC-3)	GI50 (SK-OV-3)	GI50 (SNB-75)	GI50 (SR)	GI50 (TK-10)	GI50 (U-251)	GI50 (UACC-257)	GI50 (SF-539)	GI50 (SN12C)
COC(=O)c1cc(C#Cc2cc(OC)ccc2OC)ccc1OC	51.3 µM (inactive)	24.5 µM (inactive)	> 100 µM (inactive)	40.3 µM	31.1 µM (inactive)	32.1 µM (inactive)	41.3 µM (inactive)	44.3 µM (inactive)	47.5 µM (inactive)	46.7 µM (inactive)	40.7 µM (inactive)	45.4 µM (inactive)	33.8 µM (inactive)	26.8 µM (inactive)	54.6 µM (inactive)	95.1 µM (inactive)	37.2 µM (inactive)		
CCOC(=O)C[C@@H](C)[C@]1(C(=O)OC)CCCC1=O	> 70.6 µM (inactive)	> 51.8 µM (inactive)	> 100 µM (inactive)	> 100 µM	> 100 µM (inactive)	> 47.1 µM (inactive)		> 100 µM (inactive)		> 100 µM (inactive)		> 100 µM (inactive)	> 100 µM (inactive)	27.9 µM (inactive)	> 100 µM (inactive)	> 100 µM (inactive)	> 100 µM (inactive)	> 100 µM (inactive)	> 100 µM (inactive)
CC(C)C(=S)N(C)O	18.3 µM (inactive)	0.35 µM (active)	40.2 µM (inactive)	24.2 µM	1.35 µM (inactive)	11.8 µM (inactive)		53.7 µM (inactive)		9.89 µM (inactive)		55.3 µM (inactive)	22.4 µM (inactive)	0.481 µM (active)	> 51.3 µM (inactive)	28.4 µM (inactive)	29.1 µM (inactive)	25.6 µM (inactive)	26.6 µM (inactive)
CC(=O)Nc1ccc(C(=O)N2N=C(C)/C(=C/c3cccc([N+](=O)[O-])c3)C2=O)cc1	> 100 µM (inactive)	> 100 µM (inactive)	> 100 µM (inactive)		> 100 µM (inactive)	> 100 µM (inactive)		> 100 µM (inactive)		> 100 µM (inactive)			> 100 µM (inactive)	> 100 µM (inactive)	> 100 µM (inactive)		> 100 µM (inactive)	> 100 µM (inactive)	> 100 µM (inactive)
COc1cc(/C=C2\[C@H]3c4c(c(OC)c(C)c(OC)c4OC)CC(C(=O)N2Cc2ccccc2)N3C)c(OC)c(C)c1OC	18.1 µM (inactive)	17.3 µM (inactive)	21.7 µM (inactive)		15.7 µM (inactive)	18.4 µM (inactive)		21.9 µM (inactive)		16.1 µM (inactive)		29.5 µM (inactive)	25.4 µM (inactive)	21.2 µM (inactive)	33.5 µM (inactive)	19.5 µM (inactive)	21 µM (inactive)	19.3 µM (inactive)	17.9 µM (inactive)
COC1CC2C3/C(=N/Nc4ccc([N+](=O)[O-])cc4[N+](=O)[O-])CCC2(C)C3C1 (configuration not stated)	> 10 µM (inactive)	> 10 µM (inactive)	> 10 µM (inactive)	> 100 µM	52.6 µM (inactive)	> 10 µM (inactive)		> 10 µM (inactive)		> 10 µM (inactive)		> 10 µM (inactive)	> 10 µM (inactive)	37.1 µM (inactive)	> 100 µM (inactive)	> 10 µM (inactive)	> 100 µM (inactive)	> 10 µM (inactive)	> 10 µM (inactive)
CCCCCCCC[N+](C)(C)Cc1ccc(C[N+](C)(C)CCCCCCCC)cc1	> 100 µM (inactive)	1.76 µM (inactive)	31.5 µM (inactive)	> 100 µM	36.4 µM (inactive)	84.5 µM (inactive)		95.3 µM (inactive)		18.6 µM (inactive)		69.7 µM (inactive)	15.8 µM (inactive)	> 100 µM (inactive)	86.9 µM (inactive)	6.53 µM (inactive)	41.9 µM (inactive)		7.33 µM (inactive)
CCOC(OC1=CCCC1)C(C)[Se]c1ccccc1 (configuration not stated)	19.1 µM (inactive)	18.7 µM (inactive)	32.4 µM (inactive)	16.8 µM	14.6 µM (inactive)	14.7 µM (inactive)		32.8 µM (inactive)		44.2 µM (inactive)		> 100 µM (inactive)	39.3 µM (inactive)	14.2 µM (inactive)	> 100 µM (inactive)	16.3 µM (inactive)	36 µM (inactive)	23.8 µM (inactive)	30.7 µM (inactive)
COC(=O)C(=O)C(C(=O)C(N)=O)c1nc2ccc(C(=O)c3ccccc3)cc2nc1O (configuration not stated)	> 100 µM (inactive)		> 100 µM (inactive)	55.7 µM	84.7 µM (inactive)	> 100 µM (inactive)	65 µM (inactive)	> 100 µM (inactive)	40.4 µM (inactive)	28.6 µM (inactive)	75.2 µM (inactive)	> 100 µM (inactive)	69 µM (inactive)	27.7 µM (inactive)	> 100 µM (inactive)	> 100 µM (inactive)	> 100 µM (inactive)	87.1 µM (inactive)	> 100 µM (inactive)
